Where “and” joins values, the source holds several entries; their conditions need not be identical. Equal values may be shown once.
How the values were obtained:
[1] = xn = mol fraction of the nth substance listed; conditions: 100 kPa, Liquid, Vibrating tube method
[2] = excess molar enthalpy (molar enthalpy of mixing); xn = mol fraction of the nth substance listed; conditions: 100 kPa, Liquid, Calvet calorimetry

CC1=CCC(=O)O1 [5-methylfuran-2(3H)-one] + O
Conditions	excess molar enthalpy, [2]	mass density, [1]
288.15 K, x1 = 0.001003	-0.000397 kcal/mol and -0.000394 kcal/mol	999.878 kg/m3 and 999.871 kg/m3
288.15 K, x1 = 0.002004	-0.000729 kcal/mol	1000.64 kg/m3
288.15 K, x1 = 0.002005	-0.000727 kcal/mol	1000.64 kg/m3
288.15 K, x1 = 0.003003	-0.00101 kcal/mol	1001.39 kg/m3
288.15 K, x1 = 0.003004	-0.00101 kcal/mol	1001.39 kg/m3
288.15 K, x1 = 0.004	-0.00125 kcal/mol	1002.15 kg/m3
288.15 K, x1 = 0.004001	-0.00123 kcal/mol	1002.14 kg/m3
288.15 K, x1 = 0.004995	-0.00143 kcal/mol	1002.91 kg/m3
288.15 K, x1 = 0.004996	-0.00141 kcal/mol	1002.92 kg/m3
288.15 K, x1 = 0.00599	-0.00152 kcal/mol and -0.00155 kcal/mol	1003.65 kg/m3 and 1003.64 kg/m3
298.15 K, x1 = 0.001003	-2.65e-05 kcal/mol	997.759 kg/m3
298.15 K, x1 = 0.001004	-2.65e-05 kcal/mol	997.756 kg/m3
298.15 K, x1 = 0.002004	-6.21e-06 kcal/mol	998.467 kg/m3
298.15 K, x1 = 0.002006	-6.21e-06 kcal/mol	998.464 kg/m3
298.15 K, x1 = 0.003003	6.57e-05 kcal/mol	999.156 kg/m3
298.15 K, x1 = 0.003005	6.05e-05 kcal/mol	999.156 kg/m3
298.15 K, x1 = 0.004	0.000175 kcal/mol	999.847 kg/m3
298.15 K, x1 = 0.004003	0.000175 kcal/mol	999.843 kg/m3
298.15 K, x1 = 0.004993	0.000335 kcal/mol	1000.51 kg/m3
298.15 K, x1 = 0.004998	0.000332 kcal/mol	1000.53 kg/m3
298.15 K, x1 = 0.005987	0.000559 kcal/mol	1001.2 kg/m3
298.15 K, x1 = 0.005992	0.000571 kcal/mol	1001.21 kg/m3
308.15 K, x1 = 0.001003	0.000327 kcal/mol and 0.000325 kcal/mol	994.684 kg/m3
308.15 K, x1 = 0.002003	0.000693 kcal/mol	995.33 kg/m3
308.15 K, x1 = 0.002004	0.000693 kcal/mol	995.328 kg/m3
308.15 K, x1 = 0.003002	0.0011 kcal/mol	995.967 kg/m3
308.15 K, x1 = 0.003003	0.0011 kcal/mol	995.967 kg/m3
308.15 K, x1 = 0.003999	0.00155 kcal/mol	996.597 kg/m3
308.15 K, x1 = 0.004	0.00153 kcal/mol	996.594 kg/m3
308.15 K, x1 = 0.004994	0.00204 kcal/mol	997.199 kg/m3
308.15 K, x1 = 0.004995	0.00202 kcal/mol	997.205 kg/m3
308.15 K, x1 = 0.005987	0.00257 kcal/mol	997.78 kg/m3
308.15 K, x1 = 0.00599	0.00258 kcal/mol	997.837 kg/m3
318.15 K, x1 = 0.001003	0.000667 kcal/mol	990.808 kg/m3 and 990.803 kg/m3
318.15 K, x1 = 0.002003	0.00136 kcal/mol and 0.00137 kcal/mol	991.392 kg/m3 and 991.396 kg/m3
318.15 K, x1 = 0.003002	0.00211 kcal/mol and 0.0021 kcal/mol	991.977 kg/m3 and 991.98 kg/m3
318.15 K, x1 = 0.003998	0.00286 kcal/mol	992.55 kg/m3
318.15 K, x1 = 0.003999	0.00286 kcal/mol	992.546 kg/m3
318.15 K, x1 = 0.004993	0.00369 kcal/mol and 0.00367 kcal/mol	993.112 kg/m3 and 993.102 kg/m3
318.15 K, x1 = 0.005986	0.00455 kcal/mol	993.663 kg/m3
318.15 K, x1 = 0.005987	0.00456 kcal/mol	993.668 kg/m3

CC1CCCC(=O)O1 (centres undefined) [2H-pyran-2-one, tetrahydro-6-methyl-] + O
Conditions	excess molar enthalpy, [2]	mass density, [1]
288.15 K, x1 = 0.001653	-0.00342 kcal/mol	999.935 kg/m3
288.15 K, x1 = 0.002149	-0.00437 kcal/mol	1000.17 kg/m3
288.15 K, x1 = 0.002478	-0.00505 kcal/mol	1000.35 kg/m3
288.15 K, x1 = 0.002643	-0.00535 kcal/mol	1000.42 kg/m3
288.15 K, x1 = 0.003302	-0.0066 kcal/mol and -0.00666 kcal/mol	1000.74 kg/m3 and 1000.76 kg/m3
288.15 K, x1 = 0.004124	-0.00818 kcal/mol	1001.15 kg/m3
288.15 K, x1 = 0.004945	-0.00973 kcal/mol	1001.54 kg/m3
298.15 K, x1 = 0.001158	-0.00194 kcal/mol	997.57 kg/m3
298.15 K, x1 = 0.001653	-0.00273 kcal/mol	997.788 kg/m3
298.15 K, x1 = 0.002147	-0.00352 kcal/mol	998.009 kg/m3
298.15 K, x1 = 0.002641	-0.00431 kcal/mol	998.225 kg/m3
298.15 K, x1 = 0.0033	-0.00534 kcal/mol	998.509 kg/m3
298.15 K, x1 = 0.003306	-0.00541 kcal/mol	998.52 kg/m3
298.15 K, x1 = 0.003307	-0.00536 kcal/mol	998.507 kg/m3
298.15 K, x1 = 0.004125	-0.00661 kcal/mol	998.876 kg/m3
298.15 K, x1 = 0.004129	-0.00669 kcal/mol	998.875 kg/m3
298.15 K, x1 = 0.004131	-0.00664 kcal/mol	998.861 kg/m3
298.15 K, x1 = 0.004946	-0.0079 kcal/mol	999.23 kg/m3
298.15 K, x1 = 0.004951	-0.00787 kcal/mol	999.209 kg/m3
298.15 K, x1 = 0.004953	-0.00781 kcal/mol	999.206 kg/m3
308.15 K, x1 = 0.001656	-0.00216 kcal/mol	994.712 kg/m3
308.15 K, x1 = 0.002482	-0.00315 kcal/mol	995.04 kg/m3
308.15 K, x1 = 0.003307	-0.00409 kcal/mol and -0.00415 kcal/mol	995.379 kg/m3 and 995.363 kg/m3
308.15 K, x1 = 0.00413	-0.00511 kcal/mol	995.684 kg/m3
308.15 K, x1 = 0.004131	-0.00506 kcal/mol	995.714 kg/m3
308.15 K, x1 = 0.004953	-0.00603 kcal/mol	995.986 kg/m3
308.15 K, x1 = 0.004954	-0.00601 kcal/mol	996.02 kg/m3
318.15 K, x1 = 0.001655	-0.00147 kcal/mol and -0.00148 kcal/mol	990.83 kg/m3 and 990.824 kg/m3
318.15 K, x1 = 0.00248	-0.0022 kcal/mol	991.131 kg/m3
318.15 K, x1 = 0.002481	-0.00221 kcal/mol	991.124 kg/m3
318.15 K, x1 = 0.003305	-0.0029 kcal/mol	991.433 kg/m3
318.15 K, x1 = 0.003306	-0.00293 kcal/mol	991.423 kg/m3
318.15 K, x1 = 0.004127	-0.0036 kcal/mol	991.726 kg/m3
318.15 K, x1 = 0.004129	-0.00363 kcal/mol	991.723 kg/m3
318.15 K, x1 = 0.004948	-0.00429 kcal/mol	992.021 kg/m3
318.15 K, x1 = 0.004952	-0.00432 kcal/mol	992.018 kg/m3

From the NIST ThermoML archive (doi:10.1021/acs.jced.8b01146)
